What was measured:
Mouse neuro 2a cells = experiment: Neurite outgrowth of mouse neuroblastoma neuro 2a cells (Table 7); format: cell-based; conditions: mean ± S.D.
Procedure: The biological activities in vitro of the compounds of formula (I) on cells of the nervous system were tested. The cells tested were mouse neuroblastoma cell line neuro-2a (Dainippon Pharmaceutical Co., Ltd.) which have been established as the cells of the nervous system. The above nerve cells were grown in an incubator at 37° C. in the presence of 5% carbon dioxide gas exponentially, and the cultured for a certain period of time together with the compounds of formula (I).
The effects of the compounds of this invention on neuroblastoma cells were examined by the following method.
Mouse neuro 2a cells in the logarithmic growth period in the Dulbecco's modified Eagle's medium [DMEM, containing 100 units/ml of penicillin G sodium and 100 micrograms/ml of streptomycin sulfate] containing 10% of FCS were seeded in a 48-well plate so that the number of cells was 1,000 cells/well, and cultured for one day in 0.25 ml of the culture fluid in each well in an incubator containing 5% of carbon dioxide gas in air at 37° C. The medium was replaced by a medium containing each antibiotics and FCS and the cells were further cultured for 24 hours. Then, a 4% aqueous glutaraldehyde solution in the same amount as a medium (0.25 ml) was added, and the culture was left to stand at room temperature for 2 hours to fix the cells. After washing with water, a 0.05% aqueous solution of methylene blue was added to stain the cells. Under a microscope, the number of cells containing outgrown neurites (cells having at least one neurite with a length of at least two times as large as the long diameter of the cell) was counted visually, and the proportion of these cells in the entire cells was calculated. The well was observed over 5 or more visual fields (at least 2% of the entire surface area of the well) continuous to the left and right from a mark put at the center of the well, and more than 200 cells was counted. One drug compound was used in 6 different concentrations at most, and three runs were conducted for each concentration.

[1] = system: Mouse neuroblastoma cells NS-20Y; experiment: Neurite appearance in mouse neuroblastoma NS-20Y cells (Table 8); format: cell-based;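 also: cells grown in polyornithine-coated dishes, with timing counted from the start of culture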
mouse = experiment: Acute toxicity in mouse (Table 10); format: in vivo
Procedure: The acute toxicity of the compounds of the invention was examined by the following method.
Male ddy-strain 5-week old mice, 4-6 per group, were used as experimental animals. Each of the compounds was dissolved or suspended in saline and administered perorally (p.o.) or intraperitoneally (i.p.), and the toxicity of the compound was assessed 24 hours after the administration.

[2] = i.p., 24 hours after administration

Structure (SMILES) | Ratio of the number of cells having neurites with a length of at least two times as large as the diameter of cells to the total number of cells (Mouse neuro 2a cells; 0.01 mM) [%] | Ratio of the number of cells having neurites with a length of at least two times as large as the diameter of cells to the total number of cells (Mouse neuro 2a cells; 0.03 mM) [%] | Ratio of the number of cells having neurites with a length of at least two times as large as the diameter of cells to the total number of cells (Mouse neuro 2a cells; 0.3 mM) [%] | Ratio of the number of cells having neurites with a length of at least two times as large as the diameter of cells to the total number of cells (Mouse neuro 2a cells; 1 mM) [%] | The number of cells in which neurites appeared/Total number of cells ([1]; 24 hour, 0.2 mM) | The number of cells in which neurites appeared/Total number of cells ([1]; 48 hour, 0.2 mM) | Estimated LD50 (mouse; in vivo, ip) [mg/kg] | Ratio of the number of cells having neurites with a length of at least two times as large as the diameter of cells to the total number of cells (Mouse neuro 2a cells; 0.1 mM) [%] | The number of cells in which neurites appeared/Total number of cells ([1]; 24 hour, 0.5 mM) | The number of cells in which neurites appeared/Total number of cells ([1]; 48 hour, 0.5 mM) | Estimated LD50 (mouse; [2]) [mg/kg] | The number of cells in which neurites appeared/Total number of cells ([1]; 24 hour, 0.1 mM) | The number of cells in which neurites appeared/Total number of cells ([1]; 48 hour, 0.1 mM)
CC(=O)c1ccc(C(=O)N(C)c2ccnc(N3CCC(c4ccccc4)CC3)n2)cc1 [Compound 176] | 18.4 ± 2.0 | 11.5 ± 2.1 | 13.6 ± 0.9 | 14.8 ± 2.9 | 4/50 | 4/50 | > 1000 | – | – | – | – | – | –
COC(=O)c1ccc(C(=O)N(C)c2ccnc(N3CCCCC3)n2)cc1 [Compound 192] | – | – | 13.8 ± 2.8 | – | 5/50 | 7/50 | 500 to 1000 | 8.0 ± 1.3 | 5/50 | 11/50 | – | – | –
CN(C(=O)c1ccc(C=O)cc1)c1ccnc(N2CCCCC2)n1 [Compound 200] | – | – | 19.7 ± 3.1 | – | 8/50 | 11/50 | – | 5.8 ± 1.3 | 16/50 | 18/50 | > 1000 | – | –
CC(=O)c1ccc(C(=O)N(C)c2ccnc(N3CCCCC3)n2)cc1 [Compound 208] | – | – | 7.9 ± 0.6 | 12.7 ± 3.0 | 2/50 | 6/50 | > 1000 | – | 3/50 | 5/50 | – | – | –
CC(=O)N(C)c1ccnc(N2CCSCC2)n1 [Compound 216] | – | – | 4.4 ± 1.3 | 15.8 ± 3.2 | 3/50 | – | 500 to 1000 | – | 3/50 | 4/50 | – | – | –
O=C1CCCN1c1ccnc(N2CCCCC2)n1 [Compound 273] | 5.3 ± 0.8 | – | 24.0 ± 3.2 | 10.3 ± 4.0 | 15/50 | 16/50 | – | 7.7 ± 2.0 | 18/50 | 22/50 | > 500 | 10/50 | 8/50

From patent publication US5358945A, “Pyrimidine compound and pharmaceutically acceptable salts thereof” (Mitsui Petrochemical Industries, Ltd., priority 1990, dated 1994)
